The source made the active and inactive calls.
How the values were obtained:
[1] = molecular target: Glyceraldehyde-3-phosphate dehydrogenase (Homo sapiens, UniProt P04406)
Estrogen receptor = molecular target: T1, Estrogen receptor (Homo sapiens, UniProt P03372);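 also: potency for inhibiting coactivator peptide recruitment to the receptor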
T1 sequence (P03372 whole entry): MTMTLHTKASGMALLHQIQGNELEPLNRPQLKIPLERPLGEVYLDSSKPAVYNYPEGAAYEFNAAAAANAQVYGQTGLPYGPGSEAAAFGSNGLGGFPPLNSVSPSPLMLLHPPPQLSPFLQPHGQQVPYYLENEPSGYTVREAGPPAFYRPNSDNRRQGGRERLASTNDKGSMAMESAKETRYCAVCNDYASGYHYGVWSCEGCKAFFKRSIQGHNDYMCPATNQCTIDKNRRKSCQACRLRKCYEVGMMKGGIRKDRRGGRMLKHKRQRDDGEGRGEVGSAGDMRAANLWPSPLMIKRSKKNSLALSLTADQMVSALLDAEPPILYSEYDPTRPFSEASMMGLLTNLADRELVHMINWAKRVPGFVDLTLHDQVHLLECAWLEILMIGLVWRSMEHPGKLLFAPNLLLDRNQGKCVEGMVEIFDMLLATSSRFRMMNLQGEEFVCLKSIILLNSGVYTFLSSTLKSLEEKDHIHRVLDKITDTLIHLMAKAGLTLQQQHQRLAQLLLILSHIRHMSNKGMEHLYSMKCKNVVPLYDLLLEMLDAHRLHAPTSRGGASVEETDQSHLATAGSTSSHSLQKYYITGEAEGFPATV

[2] = molecular target: Peroxisome proliferator-activated receptor gamma/Nuclear receptor coactivator 1 (Homo sapiens, UniProt P37231); format: functional;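 also: agonist potency as compounds enhance coactivator SRC-1 recruitment to PPARgamma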
Estrogen receptor beta [3] = molecular target: T2, Estrogen receptor beta (Homo sapiens, UniProt Q92731);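 also: recombinant ER-beta bound to coactivator SRC1 peptide in presence of estradiol agonist; inhibitors block coactivator peptide binding and lower the FRET signal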
T2 sequence (Q92731 whole entry): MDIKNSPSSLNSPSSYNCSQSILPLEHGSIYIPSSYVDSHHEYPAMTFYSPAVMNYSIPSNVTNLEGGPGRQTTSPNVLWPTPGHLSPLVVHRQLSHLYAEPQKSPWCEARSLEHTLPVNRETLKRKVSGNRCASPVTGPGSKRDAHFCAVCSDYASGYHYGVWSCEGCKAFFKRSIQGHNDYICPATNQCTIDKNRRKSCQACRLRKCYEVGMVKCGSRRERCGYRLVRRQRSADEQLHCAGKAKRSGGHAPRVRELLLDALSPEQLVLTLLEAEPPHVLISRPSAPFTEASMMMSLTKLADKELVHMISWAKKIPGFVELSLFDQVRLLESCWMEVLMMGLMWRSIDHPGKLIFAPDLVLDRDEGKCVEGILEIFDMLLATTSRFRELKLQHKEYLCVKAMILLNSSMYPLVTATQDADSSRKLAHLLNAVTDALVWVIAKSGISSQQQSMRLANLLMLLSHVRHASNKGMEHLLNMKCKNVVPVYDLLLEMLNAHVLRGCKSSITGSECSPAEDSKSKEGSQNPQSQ

[4] = molecular target: Peroxisome proliferator-activated receptor gamma/Nuclear receptor coactivator 2 (Homo sapiens, UniProt P37231); format: functional;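 also: agonist potency for raising coactivator recruitment to the receptor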
Peroxisome proliferator-activated receptor gamma/Nuclear receptor coactivator 2, sequence (P37231 whole entry): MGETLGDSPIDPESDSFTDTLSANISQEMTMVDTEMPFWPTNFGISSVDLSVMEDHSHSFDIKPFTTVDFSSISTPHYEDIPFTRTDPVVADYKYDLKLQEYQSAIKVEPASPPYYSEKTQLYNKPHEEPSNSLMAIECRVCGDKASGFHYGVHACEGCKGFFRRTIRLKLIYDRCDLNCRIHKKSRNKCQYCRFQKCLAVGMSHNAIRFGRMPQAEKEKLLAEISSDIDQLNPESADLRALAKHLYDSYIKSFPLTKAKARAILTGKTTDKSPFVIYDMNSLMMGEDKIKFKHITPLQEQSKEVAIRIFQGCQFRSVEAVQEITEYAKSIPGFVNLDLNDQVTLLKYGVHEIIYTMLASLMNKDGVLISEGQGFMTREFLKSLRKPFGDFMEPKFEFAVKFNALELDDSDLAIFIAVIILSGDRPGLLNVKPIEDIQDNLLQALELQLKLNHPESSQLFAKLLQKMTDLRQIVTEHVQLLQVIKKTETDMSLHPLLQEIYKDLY
Peroxisome proliferator-activated receptor gamma/Nuclear receptor coactivator 2, sequence (Q15596 whole entry, further chain): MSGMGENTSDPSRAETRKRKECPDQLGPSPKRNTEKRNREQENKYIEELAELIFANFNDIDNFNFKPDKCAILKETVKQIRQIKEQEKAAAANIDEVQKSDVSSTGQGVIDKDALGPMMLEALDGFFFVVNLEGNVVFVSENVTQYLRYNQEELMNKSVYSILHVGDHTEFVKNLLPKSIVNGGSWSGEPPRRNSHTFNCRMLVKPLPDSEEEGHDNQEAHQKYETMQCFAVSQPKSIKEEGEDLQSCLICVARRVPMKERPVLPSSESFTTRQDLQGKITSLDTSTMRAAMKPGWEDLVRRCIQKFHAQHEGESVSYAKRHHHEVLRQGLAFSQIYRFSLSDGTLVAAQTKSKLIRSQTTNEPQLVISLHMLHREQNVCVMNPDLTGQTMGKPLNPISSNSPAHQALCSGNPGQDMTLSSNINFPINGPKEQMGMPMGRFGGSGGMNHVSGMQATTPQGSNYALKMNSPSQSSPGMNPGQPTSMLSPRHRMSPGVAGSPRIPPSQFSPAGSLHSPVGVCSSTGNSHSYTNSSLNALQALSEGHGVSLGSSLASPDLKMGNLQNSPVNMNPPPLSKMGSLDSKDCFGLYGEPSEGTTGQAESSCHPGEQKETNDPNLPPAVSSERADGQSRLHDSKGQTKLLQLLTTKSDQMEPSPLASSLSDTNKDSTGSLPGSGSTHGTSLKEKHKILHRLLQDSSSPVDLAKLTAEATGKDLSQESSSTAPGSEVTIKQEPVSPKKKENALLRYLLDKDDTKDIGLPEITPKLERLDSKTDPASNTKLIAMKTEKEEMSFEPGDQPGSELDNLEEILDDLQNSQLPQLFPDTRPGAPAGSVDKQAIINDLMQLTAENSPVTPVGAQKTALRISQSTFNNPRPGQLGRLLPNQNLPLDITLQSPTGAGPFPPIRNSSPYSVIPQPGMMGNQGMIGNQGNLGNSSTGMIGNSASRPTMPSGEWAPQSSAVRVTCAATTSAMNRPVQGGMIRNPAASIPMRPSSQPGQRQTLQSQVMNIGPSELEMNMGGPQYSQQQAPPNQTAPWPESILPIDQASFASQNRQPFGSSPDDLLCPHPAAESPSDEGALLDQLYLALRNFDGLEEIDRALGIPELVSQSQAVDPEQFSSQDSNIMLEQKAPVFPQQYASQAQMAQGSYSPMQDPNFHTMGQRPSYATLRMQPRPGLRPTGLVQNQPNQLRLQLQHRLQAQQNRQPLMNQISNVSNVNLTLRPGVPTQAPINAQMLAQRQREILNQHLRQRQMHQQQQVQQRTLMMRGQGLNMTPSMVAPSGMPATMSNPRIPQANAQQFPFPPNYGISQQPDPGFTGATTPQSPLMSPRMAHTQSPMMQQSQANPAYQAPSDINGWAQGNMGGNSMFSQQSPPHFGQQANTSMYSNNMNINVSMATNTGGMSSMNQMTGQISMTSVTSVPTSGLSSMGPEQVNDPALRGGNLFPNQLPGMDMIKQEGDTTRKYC

Estrogen receptor beta [5] = molecular target: T2, Estrogen receptor beta; assay: blockers of SRC-3 recruitment to ERβ – biochemical, ELISA, streptavidin-HRP readout, orthogonal assay, confirmation (AID 1060)
[6] = molecular target: Peroxisome proliferator-activated receptor gamma/Nuclear receptor coactivator 3 (Homo sapiens, UniProt P37231); format: functional;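 also: agonist potency for raising coactivator recruitment to the receptor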
Peroxisome proliferator-activated receptor gamma/Nuclear receptor coactivator 3, sequence (P37231 whole entry): as the sequence (P37231 whole entry) above
Peroxisome proliferator-activated receptor gamma/Nuclear receptor coactivator 3, sequence (Q9Y6Q9 whole entry, further chain): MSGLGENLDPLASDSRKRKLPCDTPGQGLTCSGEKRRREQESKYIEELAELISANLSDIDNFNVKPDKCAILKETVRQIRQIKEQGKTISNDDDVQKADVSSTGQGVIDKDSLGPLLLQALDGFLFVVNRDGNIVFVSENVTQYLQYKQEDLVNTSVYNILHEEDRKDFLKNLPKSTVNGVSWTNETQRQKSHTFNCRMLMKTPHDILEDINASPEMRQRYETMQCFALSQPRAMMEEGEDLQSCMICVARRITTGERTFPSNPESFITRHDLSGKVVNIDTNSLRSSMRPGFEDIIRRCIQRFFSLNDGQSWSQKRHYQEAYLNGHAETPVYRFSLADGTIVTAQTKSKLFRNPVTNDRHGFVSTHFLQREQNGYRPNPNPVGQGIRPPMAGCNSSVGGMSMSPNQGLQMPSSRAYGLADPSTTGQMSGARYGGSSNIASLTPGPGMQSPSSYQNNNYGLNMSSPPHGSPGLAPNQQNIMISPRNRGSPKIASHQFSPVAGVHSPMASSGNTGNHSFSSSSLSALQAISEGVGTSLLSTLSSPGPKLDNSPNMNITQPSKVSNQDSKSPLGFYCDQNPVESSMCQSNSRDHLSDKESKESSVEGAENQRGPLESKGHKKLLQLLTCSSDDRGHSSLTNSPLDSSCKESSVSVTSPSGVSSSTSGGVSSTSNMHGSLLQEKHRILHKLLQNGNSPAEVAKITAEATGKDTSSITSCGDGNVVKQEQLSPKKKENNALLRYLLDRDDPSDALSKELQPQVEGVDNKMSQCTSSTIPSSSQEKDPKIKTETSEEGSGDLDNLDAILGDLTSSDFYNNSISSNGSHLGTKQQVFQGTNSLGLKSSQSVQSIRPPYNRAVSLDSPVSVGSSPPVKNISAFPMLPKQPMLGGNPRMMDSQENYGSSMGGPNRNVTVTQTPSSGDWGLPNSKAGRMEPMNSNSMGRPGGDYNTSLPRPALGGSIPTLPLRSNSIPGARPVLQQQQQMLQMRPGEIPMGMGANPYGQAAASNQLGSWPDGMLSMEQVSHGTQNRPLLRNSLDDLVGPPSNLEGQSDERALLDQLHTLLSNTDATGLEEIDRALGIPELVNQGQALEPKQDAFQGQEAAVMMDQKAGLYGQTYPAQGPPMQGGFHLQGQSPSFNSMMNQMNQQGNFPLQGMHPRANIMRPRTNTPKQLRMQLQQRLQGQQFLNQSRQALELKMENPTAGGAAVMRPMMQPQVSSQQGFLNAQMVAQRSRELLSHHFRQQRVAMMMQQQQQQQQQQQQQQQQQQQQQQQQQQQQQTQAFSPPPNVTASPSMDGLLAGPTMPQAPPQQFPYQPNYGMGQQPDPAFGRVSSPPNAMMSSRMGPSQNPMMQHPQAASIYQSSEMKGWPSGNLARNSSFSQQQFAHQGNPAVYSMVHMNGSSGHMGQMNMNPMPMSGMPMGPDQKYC

cells [7] = assay: cells
[8] = viability of uninfected HEp-2 cells – cell-based, HTS, cytotoxicity control for RSV inhibitor project, dose response (AID 2410); format: functional; conditions: human respiratory syncytial virus
[9] = molecular target: T3, Sentrin-specific protease 7 (Homo sapiens, UniProt Q9BQF6); assay: inhibition of human SENP7 cleavage activity – biochemical, luminescence, SAR follow-up (AID 504497); format: functional
T3 sequence (Q9BQF6 whole entry): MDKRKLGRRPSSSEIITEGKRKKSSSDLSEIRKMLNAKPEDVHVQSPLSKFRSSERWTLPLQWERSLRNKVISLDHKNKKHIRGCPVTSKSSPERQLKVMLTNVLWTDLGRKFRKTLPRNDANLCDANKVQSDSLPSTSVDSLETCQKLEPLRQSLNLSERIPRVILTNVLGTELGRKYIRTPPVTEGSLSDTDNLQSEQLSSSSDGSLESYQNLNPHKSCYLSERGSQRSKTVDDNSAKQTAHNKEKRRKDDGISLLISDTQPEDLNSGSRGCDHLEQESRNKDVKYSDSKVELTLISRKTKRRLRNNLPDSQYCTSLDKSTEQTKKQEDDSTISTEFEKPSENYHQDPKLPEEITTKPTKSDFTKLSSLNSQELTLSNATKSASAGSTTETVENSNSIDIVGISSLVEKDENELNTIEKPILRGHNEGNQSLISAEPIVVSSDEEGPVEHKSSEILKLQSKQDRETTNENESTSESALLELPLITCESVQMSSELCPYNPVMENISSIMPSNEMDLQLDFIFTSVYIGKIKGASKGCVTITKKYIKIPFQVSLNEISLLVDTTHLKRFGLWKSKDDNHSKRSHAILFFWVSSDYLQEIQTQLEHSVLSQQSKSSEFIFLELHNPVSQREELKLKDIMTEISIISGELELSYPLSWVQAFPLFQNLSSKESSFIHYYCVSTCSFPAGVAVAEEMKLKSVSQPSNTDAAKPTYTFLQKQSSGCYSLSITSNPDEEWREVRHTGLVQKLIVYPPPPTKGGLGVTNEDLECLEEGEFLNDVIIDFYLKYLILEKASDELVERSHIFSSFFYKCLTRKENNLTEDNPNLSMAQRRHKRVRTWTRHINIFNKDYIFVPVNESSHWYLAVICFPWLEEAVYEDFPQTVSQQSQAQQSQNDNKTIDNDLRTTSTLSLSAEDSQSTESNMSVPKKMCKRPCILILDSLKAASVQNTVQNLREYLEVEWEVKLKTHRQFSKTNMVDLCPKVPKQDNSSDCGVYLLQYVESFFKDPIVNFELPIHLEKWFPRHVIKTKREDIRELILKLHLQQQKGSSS

Caspase-3 = molecular target: T4, Caspase-3 (Homo sapiens, UniProt P42574); assay: SAR Analysis of small molecule inhibitors of Sentrin-specific proteases (SENPs) using a Caspase-3 Selectivity assay. [Related pubchem assays (depositor defined):AID2540, AID2599, AID434973, AID489001]; format: functional
T4 sequence (P42574 whole entry): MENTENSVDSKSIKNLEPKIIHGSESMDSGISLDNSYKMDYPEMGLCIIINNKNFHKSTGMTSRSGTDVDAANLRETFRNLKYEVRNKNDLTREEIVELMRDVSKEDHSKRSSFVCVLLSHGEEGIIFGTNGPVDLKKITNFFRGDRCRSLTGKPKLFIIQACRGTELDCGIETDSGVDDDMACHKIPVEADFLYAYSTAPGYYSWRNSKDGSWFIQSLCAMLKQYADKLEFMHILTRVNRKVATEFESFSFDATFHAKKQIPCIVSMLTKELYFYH

[10] = molecular target: T5, Sentrin-specific protease 8 (Homo sapiens, UniProt Q96LD8); assay: inhibition of human SENP8 cleavage activity – biochemical, luminescence, SAR follow-up (AID 504501); format: functional
T5 sequence (Q96LD8 whole entry): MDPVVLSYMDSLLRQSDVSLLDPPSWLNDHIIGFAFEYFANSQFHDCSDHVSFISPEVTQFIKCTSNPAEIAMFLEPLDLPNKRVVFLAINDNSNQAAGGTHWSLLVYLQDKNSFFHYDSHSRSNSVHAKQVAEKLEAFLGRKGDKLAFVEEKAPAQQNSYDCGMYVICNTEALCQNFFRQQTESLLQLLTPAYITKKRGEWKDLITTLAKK

[11] = molecular target: T6, Mannose-6-phosphate isomerase (Homo sapiens, UniProt P34949); assay: MPI enzyme activity inhibition – biochemical, fluorescence intensity, coupled assay, primary screen (AID 1209)
T6 sequence (P34949 whole entry): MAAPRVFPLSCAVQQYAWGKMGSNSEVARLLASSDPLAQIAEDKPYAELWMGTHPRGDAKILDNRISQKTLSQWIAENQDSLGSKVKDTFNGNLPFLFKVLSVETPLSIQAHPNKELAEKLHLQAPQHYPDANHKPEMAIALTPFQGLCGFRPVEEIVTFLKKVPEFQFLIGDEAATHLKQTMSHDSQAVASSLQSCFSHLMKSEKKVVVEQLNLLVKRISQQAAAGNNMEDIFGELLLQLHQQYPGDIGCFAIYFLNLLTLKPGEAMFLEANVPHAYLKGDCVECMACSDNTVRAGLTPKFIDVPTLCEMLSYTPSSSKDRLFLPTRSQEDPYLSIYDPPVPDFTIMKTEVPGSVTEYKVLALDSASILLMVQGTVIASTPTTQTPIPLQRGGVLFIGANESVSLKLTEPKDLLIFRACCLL

[12] = molecular target: T6, Mannose-6-phosphate isomerase; assay: MPI inhibition at elevated mannose 6-phosphate – biochemical, fluorescence intensity, high mannose 6-phosphate, primary screen (AID 1220)
[13] = molecular target: T7, Sentrin-specific protease 6 (Homo sapiens, UniProt Q9GZR1); assay: SAR Analysis of small molecule inhibitors of Sentrin-specific protease 6 (SENP6) using a Luminescent assay. [Related pubchem assays (depositor defined):AID2582, AID2599]; format: functional
T7 sequence (Q9GZR1 whole entry): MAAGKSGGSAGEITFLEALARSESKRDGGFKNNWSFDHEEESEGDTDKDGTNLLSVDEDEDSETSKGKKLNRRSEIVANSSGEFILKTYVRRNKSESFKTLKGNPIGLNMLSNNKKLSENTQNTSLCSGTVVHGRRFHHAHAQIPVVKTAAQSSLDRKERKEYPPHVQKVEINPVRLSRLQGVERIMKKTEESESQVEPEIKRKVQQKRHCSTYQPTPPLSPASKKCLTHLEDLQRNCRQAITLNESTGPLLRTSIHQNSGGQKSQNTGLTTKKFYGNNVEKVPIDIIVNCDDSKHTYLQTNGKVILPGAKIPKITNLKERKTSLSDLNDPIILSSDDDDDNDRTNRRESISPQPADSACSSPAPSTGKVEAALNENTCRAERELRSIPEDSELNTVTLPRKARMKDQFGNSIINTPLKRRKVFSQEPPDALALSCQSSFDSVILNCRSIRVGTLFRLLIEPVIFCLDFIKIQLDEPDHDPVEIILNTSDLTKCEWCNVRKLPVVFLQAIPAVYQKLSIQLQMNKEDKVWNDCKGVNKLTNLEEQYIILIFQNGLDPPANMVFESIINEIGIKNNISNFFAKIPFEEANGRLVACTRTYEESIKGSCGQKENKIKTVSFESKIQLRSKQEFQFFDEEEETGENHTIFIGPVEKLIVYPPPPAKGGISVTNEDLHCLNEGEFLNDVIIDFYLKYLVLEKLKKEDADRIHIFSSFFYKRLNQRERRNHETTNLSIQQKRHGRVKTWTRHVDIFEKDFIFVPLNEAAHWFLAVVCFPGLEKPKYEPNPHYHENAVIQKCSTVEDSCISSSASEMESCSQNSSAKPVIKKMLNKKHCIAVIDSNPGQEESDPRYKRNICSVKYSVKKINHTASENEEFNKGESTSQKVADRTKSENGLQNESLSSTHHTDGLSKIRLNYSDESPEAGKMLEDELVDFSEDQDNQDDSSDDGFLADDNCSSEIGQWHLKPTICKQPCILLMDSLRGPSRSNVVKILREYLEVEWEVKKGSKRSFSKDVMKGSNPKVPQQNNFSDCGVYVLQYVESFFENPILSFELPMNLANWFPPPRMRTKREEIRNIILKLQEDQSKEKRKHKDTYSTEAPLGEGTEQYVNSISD

[14] = molecular target: 26S proteasome non-ATPase regulatory subunit 14 (Homo sapiens, UniProt O00487); assay: inhibition of proteasome subunit RPN11 – biochemical, fluorescence polarization, uHTS hits, confirmation (AID 602368); format: functional
26S proteasome non-ATPase regulatory subunit 14, sequence (O00487 whole entry): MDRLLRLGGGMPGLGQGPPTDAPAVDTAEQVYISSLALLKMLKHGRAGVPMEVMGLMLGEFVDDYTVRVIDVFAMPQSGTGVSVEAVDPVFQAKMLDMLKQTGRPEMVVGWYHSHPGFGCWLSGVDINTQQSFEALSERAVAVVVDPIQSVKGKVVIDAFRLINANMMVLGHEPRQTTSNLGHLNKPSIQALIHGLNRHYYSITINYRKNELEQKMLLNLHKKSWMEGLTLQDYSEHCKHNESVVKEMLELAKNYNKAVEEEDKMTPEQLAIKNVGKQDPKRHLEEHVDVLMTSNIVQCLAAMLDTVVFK

Streptococcus = assay: GAS UMAA2166 growth inhibition – luminescence, BacTiterGlo, counter-screen for streptokinase expression inhibitor project, dose response (AID 1915); format: functional, organism-based;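 also: potency for reduction of bacterial viability or growth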
cells [15] = assay: cells; remark: listed apart in the source
[16] = molecular target: 72 kDa type IV collagenase (Homo sapiens, UniProt P08253); assay: Dose Response validation of uHTS RPN11 inhibitor hits using a MMP-2 Fluorescence assay.; format: functional
[17] = NIH3T3 cell viability loss – ATP luminescence, mouse fibroblasts, counter-screen, dose response (AID 2010); format: functional, cell-based;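 also: cells exposed to compound for about 90 hours before reading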
Streptokinase A = molecular target: T8, Streptokinase A (Streptococcus pyogenes serotype M1, UniProt P10520); assay: viability-normalized secreted streptokinase activity reduction – plasminogen activation absorbance, OD405, dose response (AID 1914); format: functional, Streptococcus pyogenes M1 GAS;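 also: secreted streptokinase activity via plasminogen activation per viability signal from cell pellet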
T8 sequence (P10520 whole entry): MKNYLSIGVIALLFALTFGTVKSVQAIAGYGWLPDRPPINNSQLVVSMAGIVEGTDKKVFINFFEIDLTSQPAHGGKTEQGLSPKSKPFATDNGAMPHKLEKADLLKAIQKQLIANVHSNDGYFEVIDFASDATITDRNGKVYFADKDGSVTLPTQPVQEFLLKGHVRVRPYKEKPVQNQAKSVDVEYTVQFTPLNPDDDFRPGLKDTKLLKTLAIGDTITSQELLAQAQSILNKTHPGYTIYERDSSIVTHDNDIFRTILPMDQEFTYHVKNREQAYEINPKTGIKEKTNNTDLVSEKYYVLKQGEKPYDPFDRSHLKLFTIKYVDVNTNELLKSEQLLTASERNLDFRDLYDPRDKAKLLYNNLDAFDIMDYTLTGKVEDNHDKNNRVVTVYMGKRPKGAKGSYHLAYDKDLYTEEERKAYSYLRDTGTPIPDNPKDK

Prothrombin = Prothrombin (Bos taurus, UniProt P00735); assay: thrombin protease inhibitors – biochemical, fluorescence polarization, uHTS hits, dose response (AID 602369); format: functional
[18] = Trypanosoma cruzi growth suppression in host cells – NIH3T3 host cells, beta-gal luminescence, confirmation (AID 2044); format: functional, cell-based;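 also: intracellular parasites grown in NIH/3T3 mouse fibroblasts as host cells; luminescent beta-galactosidase reporter signal from transgenic T. cruzi replicating inside host cells; inhibitors lower the luminescence signal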
[19] = system: Streptococcus sp. 'group A'; assay: Streptococcus pyogenes SK(-)GAS viability under kanamycin – luminescence, BacTiterGlo, confirmation, counter-screen for streptokinase expression inhibitor project, dose response (AID 1900); format: functional, organism-based

Glyceraldehyde-3-phosphate dehydrogenase, sequence (P04406 whole entry): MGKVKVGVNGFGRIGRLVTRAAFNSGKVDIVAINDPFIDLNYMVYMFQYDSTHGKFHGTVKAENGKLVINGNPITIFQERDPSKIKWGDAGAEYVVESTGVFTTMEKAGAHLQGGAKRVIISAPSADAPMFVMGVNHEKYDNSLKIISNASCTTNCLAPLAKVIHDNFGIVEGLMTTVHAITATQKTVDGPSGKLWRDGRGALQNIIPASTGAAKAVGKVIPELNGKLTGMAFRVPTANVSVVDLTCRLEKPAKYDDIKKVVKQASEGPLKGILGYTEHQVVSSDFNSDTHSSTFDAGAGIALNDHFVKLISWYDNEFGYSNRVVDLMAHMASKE

With O=C1C(Cl)=C(N2CCN(C/C=C/c3ccccc3)CC2)C(=O)N1c1ccc(C(F)(F)F)cc1 the IC50 [1] was > 50 µM (inconclusive).
In the case of Cc1ccc(NS(=O)(=O)c2cccc(C(=O)OCC(=O)NCc3ccco3)c2)cc1, the IC50 (Estrogen receptor) is reported as 30.6 µM (not active).
For c1csc(Cc2nn3c(-c4n[nH]c5c4CCC5)nnc3s2)c1, the EC50 [2] was > 79.4 µM (not active), the IC50 (Estrogen receptor beta [3]) was > 50 µM (not active) and the EC50 [4] was > 79.4 µM (not active). For the same compound, the IC50 (Estrogen receptor beta [5]) was > 50 µM (not active) and the EC50 [6] was > 79.4 µM (not active).
For Cc1ccc(NC(=O)C2CCCN2S(=O)(=O)c2cccc3cccnc23)c(C)c1 (stereo unspecified), the IC50 (cells [7]) was 1.86 µM (active) and the CC50 [8] was 42.9 µM (active).
For COc1ccccc1/C=C/C(=O)N1CCc2cc(OC)c(OC)cc2C1C (stereo unspecified), the IC50 (cells [7]) was 17.8 µM (active) and the CC50 [8] was > 50 µM (active).
In the case of Oc1cccc(/C=N/Nc2cc(N3CCOCC3)nc(N3CCOCC3)n2)c1, the IC50 [9] is reported as 80.5 µM (active), the IC50 (Caspase-3) is reported as > 99 µM (inactive) and the IC50 [10] is reported as > 99 µM (inactive). For the same compound, the IC50 [11] was > 50 µM (not active), the IC50 [12] was > 50 µM (not active) and the IC50 [13] was 89.1 µM (active).
In the case of COc1ccc2nc3c(O)n(/N=C/c4ccc(OC)c(CN5CCCC5)c4)c(C)nc-3c2c1, the IC50 [14] is reported as 13 µM (active), the EC50 (Streptococcus) is reported as > 150 µM (not active) and the EC50 (cells [15]) is reported as 0.336 µM (active). For the same compound, the IC50 [16] was > 100 µM (inactive), the EC50 [17] was > 60 µM (not active) and the EC50 (Streptokinase A) was 32.3 µM (active). The IC50 (Prothrombin) was 87.9 µM (active), the EC50 [18] was < 0.1 µM (active) and the EC50 [19] was 17.8 µM (active).
